# Data from patent publication US20250282794A1 (CURADEV PHARMA LTD, priority 2022, published 2025).
# Biological target: recombinant full length HPK-1 enzyme (Homo sapiens (Human), UniProt Q92918)
# Assay: HPK-1 biochemical enzyme assay (ADP-Glo kinase inhibition)
# Settings: recombinant full length HPK-1 6.8 nM, 10 μM ATP, 12.5 μM MBP, 30 mins at 25° C.
# How it was run: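 Recombinant full-length human HPK-1 (6.8 nM) incubated 30 min at 25° C. with 10 μM ATP and 12.5 μM swine MBP in 40 mM Tris pH 7.4, 20 mM MgCl2, 50 μM DTT, 0.1 mg/mL BSA. ADP measured by ADP-Glo; IC50 from 10 concentrations, normalized to no-enzyme and vehicle controls.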
# recombinant full length HPK-1 enzyme, sequence (Q92918 whole entry, species assumed): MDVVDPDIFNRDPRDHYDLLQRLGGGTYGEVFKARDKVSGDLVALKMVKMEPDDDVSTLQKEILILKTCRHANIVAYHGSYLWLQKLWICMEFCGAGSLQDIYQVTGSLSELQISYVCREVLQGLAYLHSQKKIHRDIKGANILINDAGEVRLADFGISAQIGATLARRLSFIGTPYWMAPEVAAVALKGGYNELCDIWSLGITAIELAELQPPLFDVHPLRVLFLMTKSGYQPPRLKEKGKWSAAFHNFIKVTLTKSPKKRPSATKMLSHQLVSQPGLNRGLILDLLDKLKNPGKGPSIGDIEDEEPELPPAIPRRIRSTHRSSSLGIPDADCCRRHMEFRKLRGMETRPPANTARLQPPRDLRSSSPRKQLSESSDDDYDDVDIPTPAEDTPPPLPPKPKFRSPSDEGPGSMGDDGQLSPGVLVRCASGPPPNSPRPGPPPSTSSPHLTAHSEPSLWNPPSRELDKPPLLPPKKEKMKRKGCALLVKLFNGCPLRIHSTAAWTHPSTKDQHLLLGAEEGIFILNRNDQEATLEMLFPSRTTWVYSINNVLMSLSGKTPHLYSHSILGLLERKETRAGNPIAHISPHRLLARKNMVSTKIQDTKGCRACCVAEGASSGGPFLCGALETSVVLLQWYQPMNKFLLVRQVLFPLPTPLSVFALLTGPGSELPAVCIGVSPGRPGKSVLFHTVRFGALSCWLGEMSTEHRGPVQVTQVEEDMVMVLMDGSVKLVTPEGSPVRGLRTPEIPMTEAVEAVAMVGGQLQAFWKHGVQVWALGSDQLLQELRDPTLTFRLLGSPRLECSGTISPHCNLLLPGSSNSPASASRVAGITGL
row,IC50,Structure (SMILES)
1,≤ 0.01 µM,"Cc1c(Nc2cc[nH]c(=O)c2C(=O)Nc2ccc(N3CCN(C(=O)C4CC(C)C4)CC3)cc2)cnc2c1NCCO2 (stereo not shown) [Example 307, 4-((8-methyl-2,3-dihydro-1H-pyrido[2,3-b][1,4]oxazin-7-yl)amino)-N-(4-(4-(3-methylcyclobutane-1-carbonyl)piperazin-1-yl)phenyl)-2-oxo-1,2-dihydropyridine-3-carboxamide]"
2,≤ 0.01 µM,"Cc1c(Nc2cc[nH]c(=O)c2C(=O)Nc2ccc(N3CCN(Cc4ccnn4C)CC3)cc2)cnc2c1NCCO2 [Example 308, N-(4-(4-((1-methyl-1H-pyrazol-5-yl)methyl)piperazin-1-yl)phenyl)-4-((8-methyl-2,3-dihydro-1H-pyrido[2,3-b][1,4]oxazin-7-yl)amino)-2-oxo-1,2-dihydropyridine-3-carboxamide]"
3,≤ 0.01 µM,"Cc1c(Nc2cc[nH]c(=O)c2C(=O)Nc2ccc(N3CCN(C(=O)C4CC4(C)C)CC3)cc2)cnc2c1NCCO2 (stereo not shown) [Example 309, N-(4-(4-(2,2-dimethylcyclopropane-1-carbonyl)piperazin-1-yl)phenyl)-4-((8-methyl-2,3-dihydro-1H-pyrido[2,3-b][1,4]oxazin-7-yl)amino)-2-oxo-1,2-dihydropyridine-3-carboxamide]"
4,≤ 0.01 µM,"COC(C)(C)CN1CCN(c2ccc(NC(=O)c3c(Nc4cnc5c(c4C)NCCO5)cc[nH]c3=O)cc2)CC1 [Example 310, N-(4-(4-(2-methoxy-2-methylpropyl)piperazin-1-yl)phenyl)-4-((8-methyl-2,3-dihydro-1H-pyrido[2,3-b][1,4]oxazin-7-yl)amino)-2-oxo-1,2-dihydropyridine-3-carboxamide]"
5,≤ 0.01 µM,"Cc1c(Nc2cc[nH]c(=O)c2C(=O)Nc2ccc(N3CCN(C(=O)CC4CC4)CC3)cc2)cnc2c1NCCO2 [Example 312, N-(4-(4-(2-cyclopropylacetyl)piperazin-1-yl)phenyl)-4-((8-methyl-2,3-dihydro-1H-pyrido[2,3-b][1,4]oxazin-7-yl)amino)-2-oxo-1,2-dihydropyridine-3-carboxamide]"
6,0.01 to 0.1 µM,"CCC(=O)N1CCN(c2ccc(NC(=O)c3c(Nc4cnc5c(c4C)NCC(C)O5)cc[nH]c3=O)cc2Cl)CC1 (stereo not shown) [Example 313, N-(3-chloro-4-(4-propionylpiperazin-1-yl)phenyl)-4-((3,8-dimethyl-2,3-dihydro-1H-pyrido[2,3-b][1,4]oxazin-7-yl)amino)-2-oxo-1,2-dihydropyridine-3-carboxamide]"
7,≤ 0.01 µM,"Cc1c(Nc2cc[nH]c(=O)c2C(=O)Nc2ccc(N3CCN(C(=O)C(C)C)CC3)cc2)cnc2c1NCCO2 [Example 315, N-(4-(4-Isobutyrylpiperazin-1-yl)phenyl)-4-((8-methyl-2,3-dihydro-1H-pyrido[2,3-b][1,4]oxazin-7-yl)amino)-2-oxo-1,2-dihydropyridine-3-carboxamide]"
8,0.01 to 0.1 µM,"Cc1c(Nc2cc[nH]c(=O)c2C(=O)Nc2ccc(N3CCN(C(=O)c4ccnn4C)CC3)cc2)cnc2c1NCCO2 [Example 316, N-(4-(4-(1-methyl-1H-pyrazole-5-carbonyl)piperazin-1-yl)phenyl)-4-((8-methyl-2,3-dihydro-1H-pyrido[2,3-b][1,4]oxazin-7-yl)amino)-2-oxo-1,2-dihydropyridine-3-carboxamide]"
9,≤ 0.01 µM,"Cc1c(Nc2cc[nH]c(=O)c2C(=O)Nc2ccc(N3CCN(C(=O)N4CC(C)(C)C4)CC3)cc2)cnc2c1NCCO2 [Example 317, N-(4-(4-(3,3-dimethylazetidine-1-carbonyl)piperazin-1-yl)phenyl)-4-((8-methyl-2,3-dihydro-1H-pyrido[2,3-b][1,4]oxazin-7-yl)amino)-2-oxo-1,2-dihydropyridine-3-carboxamide]"
10,≤ 0.01 µM,"Cc1c(Nc2cc[nH]c(=O)c2C(=O)Nc2ccc(N3CCN(C(=O)C4CC(F)(F)C4)CC3)cc2)cnc2c1NCCO2 [Example 318, N-(4-(4-(3,3-difluorocyclobutane-1-carbonyl)piperazin-1-yl)phenyl)-4-((8-methyl-2,3-dihydro-1H-pyrido[2,3-b][1,4]oxazin-7-yl)amino)-2-oxo-1,2-dihydropyridine-3-carboxamide]"
